For twelve compounds, IC50 results are on record in US20260217687A1 (NeoPhore Limited, priority 2023, published 2026).

The assay concerns the target T1, recombinant N-terminal MLH1 (residues 15-340) (Homo sapiens, UniProt P40692).
T1 construct: recombinant N-terminal MLH1 (residues 15-340)
T1 sequence (P40692 15-340): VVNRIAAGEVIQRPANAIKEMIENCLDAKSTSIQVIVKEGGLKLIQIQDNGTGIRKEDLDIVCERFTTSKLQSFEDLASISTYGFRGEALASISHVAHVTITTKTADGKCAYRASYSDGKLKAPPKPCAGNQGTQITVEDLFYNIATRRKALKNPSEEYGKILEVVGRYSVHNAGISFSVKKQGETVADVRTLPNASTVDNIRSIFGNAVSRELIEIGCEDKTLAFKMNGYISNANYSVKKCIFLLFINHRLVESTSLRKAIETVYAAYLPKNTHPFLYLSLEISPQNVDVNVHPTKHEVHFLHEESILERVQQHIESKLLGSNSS
In words: Fluorescence Polarisation Assay for MLH1. Particulars: 100 nM N-terminal MLH1, 5 nM probe compound. The format is binding. The procedure:
Fluorescence Polarisation Assay for MLH1
Test compounds, as 10 mM DMSO stocks, were dispensed into a 384-well Low Flange Black Flat Bottom Polystyrene Non-binding Surface plate (Corning®, item number 3575) using a Labcyte Echo acoustic liquid handler. […] 20 μL of a 2× solution (200 nM) of recombinant N-terminal MLH1 (residues 15-340) in assay buffer (25 mM HEPES, pH 7.5, 250 mM NaCl, 10 mM MgCl2, 0.01% Triton X-100, 5 mM Dithiothreitol) was added to all wells in columns 1-23 and 20 μL assay buffer was added to all wells in column 24 using an E1-ClipTip pipette (ThermoFisher). Plates were centrifuged for 1 minute at 250 xg and were incubated at room temperature for 30 minutes prior to the addition of 20 μL of 2×(10 nM) of 5-((5-(4-((2-(2-(Benzyloxy)-4,6-dihydroxybenzoyl)isoindolin-5-yl)methyl)piperazin-1-yl)pentyl)carbamoyl)-2-(6-(dimethylamino)-3-(dimethyliminio)-3H-xanthen-9-yl)benzoate (referred to hereinafter as “probe compound”) in assay buffer (prepared from a 1 mM DMSO stock) with an E1-ClipTip pipette (ThermoFisher). The final concentration of N-terminal MLH1 was 100 nM and the final concentration of the probe compound was 5 nM. Compound plates were centrifuged for 1 minute at 250 xg for 1 minute and immediately read on a PheraStar FSX (fitted with 384-well aperture spoon and 590 675 675 FP optic module). The gain and focus were adjusted before each plate was read so that the polarisation of a no enzyme control (column 24) was equal to 35 mP. Data were normalised against the no inhibitor controls (column 23) and no enzyme controls (column 24).

One may read the IC50 as the concentration that gives 50% inhibition. In the case of `COc1ccc2c(c1)CCN(C(=O)c1c(O)cc(C(F)F)cc1OCc1ccccc1)C2` [Example 4.39, (2-(Benzyloxy)-4-(difluoromethyl)-6-hydroxyphenyl)(6-methoxy-3,4-dihydroisoquinolin-2(1H)-yl)methanone], the concentration for half-maximal inhibition (IC50) was 1000 to 10000 nM.

As for `CN(C)CCOc1ccc2c(c1)CN(C(=O)c1c(O)cc(C(F)F)cc1OCc1ccccc1)CC2` [Example 4.40, (2-(Benzyloxy)-4-(difluoromethyl)-6-hydroxyphenyl)(7-(2-(dimethylamino)ethoxy)-3,4-dihydroisoquinolin-2(1H)-yl)methanone], the IC50 lay in the range of 100 to 1000 nM.

For the compound `CN(C)Cc1ccc2c(c1)CN(C(=O)c1c(O)cc(C(F)F)cc1OCc1ccccc1)CC2` [Example 4.42, (2-(Benzyloxy)-4-(difluoromethyl)-6-hydroxyphenyl)(7-((dimethylamino)methyl)-3,4-dihydroisoquinolin-2(1H)-yl)methanone], the IC50 was in the range of 100 to 1000 nM.

As for `CN(C)Cc1ccc2c(c1)CCN(C(=O)c1c(O)cc(C(F)F)cc1OCc1ccccc1)C2` [Example 4.43, (2-(Benzyloxy)-4-(difluoromethyl)-6-hydroxyphenyl)(6-((dimethylamino)methyl)-3,4-dihydroisoquinolin-2(1H)-yl)methanone], the half-maximal inhibitory concentration (IC50) was 100 to 1000 nM.

As for `CN1CCC(Oc2ccc3c(c2)CN(C(=O)c2c(O)cc(C(F)F)cc2OCc2ccccc2)CC3)CC1` [Example 4.44, (2-(Benzyloxy)-4-(difluoromethyl)-6-hydroxyphenyl)(7-((1-methylpiperidin-4-yl)oxy)-3,4-dihydroisoquinolin-2(1H)-yl)methanone], the 50% inhibitory concentration (IC50) lay in the range of 100 to 1000 nM.

Take `CN1CCC(Oc2ccc3c(c2)CCN(C(=O)c2c(O)cc(C(F)F)cc2OCc2ccccc2)C3)CC1` [Example 4.45, (2-(Benzyloxy)-4-(difluoromethyl)-6-hydroxyphenyl)(6-((1-methylpiperidin-4-yl)oxy)-3,4-dihydroisoquinolin-2(1H)-yl)methanone]: the IC50 fell in the range of 100 to 1000 nM.

On to `CN1CCN(Cc2ccc3c(c2)CN(C(=O)c2c(O)cc(C(F)F)cc2OCc2ccccc2)CC3)CC1` [Example 4.46, (2-(Benzyloxy)-4-(difluoromethyl)-6-hydroxyphenyl)(7-((4-methylpiperazin-1-yl)methyl)-3,4-dihydroisoquinolin-2(1H)-yl)methanone], for which the IC50 is 100 to 1000 nM.

Regarding `CN1CCN(Cc2ccc3c(c2)CCN(C(=O)c2c(O)cc(C(F)F)cc2OCc2ccccc2)C3)CC1` [Example 4.47, (2-(Benzyloxy)-4-(difluoromethyl)-6-hydroxyphenyl)(6-((4-methylpiperazin-1-yl)methyl)-3,4-dihydroisoquinolin-2(1H)-yl)methanone], the IC50 was in the range of 100 to 1000 nM.

As for `O=C(c1c(O)cc(C(F)F)cc1OCc1ccccc1)N1CCc2ccc(Cn3ccnc3)cc2C1` [Example 4.48, (7-((1H-Imidazol-1-yl)methyl)-3,4-dihydroisoquinolin-2(1H)-yl)(2-(benzyloxy)-4-(difluoromethyl)-6-hydroxyphenyl)methanone], the 50% inhibitory concentration (IC50) was 100 to 1000 nM.

For `O=C(c1c(O)cc(C(F)F)cc1OCc1ccccc1)N1CCc2cc(Cn3ccnc3)ccc2C1` [Example 4.49, (6-((1H-Imidazol-1-yl)methyl)-3,4-dihydroisoquinolin-2(1H)-yl)(2-(benzyloxy)-4-(difluoromethyl)-6-hydroxyphenyl)methanone], the half-inhibitory concentration (IC50) is 100 to 1000 nM.

In the case of `O=C(c1c(O)cc(C(F)F)cc1OCc1ccccc1)N1Cc2ccc(Cn3ccnc3)cc2C1` [Example 4.50, (5-((1H-Imidazol-1-yl)methyl)isoindolin-2-yl)(2-(benzyloxy)-4-(difluoromethyl)-6-hydroxyphenyl)methanone], the IC50 fell in the range of 100 to 1000 nM.

As for `CN(C)Cc1ccc2c(c1)CN(C(=O)c1c(O)cc(C(F)F)cc1OCc1ccccc1)C2` [Example 4.51, (2-(Benzyloxy)-4-(difluoromethyl)-6-hydroxyphenyl)(5-((dimethylamino)methyl)isoindolin-2-yl)methanone], the half-inhibitory concentration (IC50) is 100 to 1000 nM.
